Laboratory results taken from patent US12459914B2, “Compounds and compositions for the treatment of tumors” (FONDAZIONE ISTITUTO ITALIANO DI TECNOLOGIA, priority 2019, dated 2025).

Test system: BxPC-3 cells
Test: Association with olaparib (given alone or in combination), cell viability / cytotoxicity
Type: cell-based
Conditions: olaparib 10 μM, 72 h
Experimental: BxPC-3 cells were grown in RPMI 1640 containing 10% FBS, 100 U/ml penicillin/streptomycin, 2 mM glutamine. All media and supplements were from Sigma-Aldrich. Cultures were routinely tested for Mycoplasma contamination. Treatments (Olaparib and BRCA2-Rad51 disruptors) were administered in culture medium supplemented with 0.6% DMSO. The same amount of DMSO was added to the control, untreated cultures.
Cell viability was assessed by CellTiter Glo, Luminescent Cell Viability Assay. Briefly, BxPC-3 cells (1×10^4/well) were plated in white 96-well plates with clear bottom and treated for 72 h with olaparib (10 μM) or with the BRCA2-Rad51 disruptors, given alone or in combination. After treatments, the plate was allowed to equilibrate at room temperature for 30 min and the CellTiter-Glo reactive was directly added to each well. The plate was kept on a shaker for 2 min to induce cell lysis and its luminescence was measured by using a Fluoroskan Ascent FL reader (Labsystems) using manufacturer's instructions.
Cell death was assessed by applying the CellTox™ Green Cytotoxicity assay (Promega). Briefly, BxPC-3 (1×10^4/well) were plated in black 96-well plates with clear bottom and treated for 72 h with olaparib (10 μM) or with the BRCA2-Rad51 disruptors, given alone or in combination. At the end of treatment, the CellTox™ dye was added to cell cultures and the green fluorescence signal, which is produced by the binding interaction with dead cell DNA, was measured following the manufacturer's instructions. The fluorescence signal was detected using the EnSpire 2300 Multilabel Reader (Perkin Elmer); for each sample, the obtained signal was normalized on the number of viable cells, detected by the CellTiterGlo reagent.

CCC(=O)N1N=C(c2c(-c3ccccc3)c3cc(Cl)ccc3[nH]c2=O)CC1c1ccc(OC)cc1 (stereo not shown) [d.12, 6-chloro-3-[3-(4-methoxyphenyl)-2-propanoyl-3,4-dihydropyrazol-5-yl]-4-phenyl-1H-quinolin-2-one]
Olaparib Assoc.: synergy
